Where “and” joins values, the source holds several entries; their conditions need not be identical. Equal entries are not always repeated. Entries after “also recorded” stand apart in the source; their conditions may differ. Where two headings read alike, the source gives them in different places.
Assays:
[1] = tested on: S. mutans; assay type: cell-based, Streptococcus mutans
[2] = tested on: S. mutans UA159; assay: In vitro static biofilm inhibition assay (crystal violet), incl. dose response study; assay type: cell-based, Streptococcus mutans
[3] = tested on: S. sobrinus 6715; assay: In vitro static biofilm inhibition assay (crystal violet); assay type: cell-based, Streptococcus sobrinus; conditions: 125 μM; for inhibition of biofilm formation of S. sobrinus 6715: BHI 1% sucrose, 20 h
[4] = tested on: human telomerase immortalized gingival keratinocytes; conditions: 24 h incubation, DermaLife K keratinocyte culture media, MTS assay
[5] = tested on: all strains of bacteria tested; set-up: key to the marks not given beside the values; conditions: 1 mM-metal
Description: Tooth application may involve exposure to bacteria outside the oral cavity, including the skin and digestive system. CAN, CAS and AgNO3 (1 mM-metal) were tested for their effect on in vitro planktonic growth of bacteria under the conditions listed in FIG. 9.

[6] = tested on: S. mutans; conditions: 500 μM, 6 h on 6 h-grown biofilm
Description: (§1) Potential mechanisms of biofilm inhibition by CeO2-NP were first explored by testing the effect of CAS and CAN on planktonic growth (FIG. 8). […] To further explore potential extracellular mechanisms of biofilm inhibition, dispersal assays were carried out on existing S. mutans and S. sobrinus biofilms grown statically for 6 h as described above (96-well plate, BHI, 1% sucrose). After 6 h, the planktonic cells were removed, the adherent biofilm rinsed (0.9% NaCl) and replaced with fresh 200 μL BHI (positive control) or BHI/500 μM CAS (test wells). All wells were allowed to incubate an additional 6 h after which the adherent biofilm was washed, stained and quantified via UV-Vis analysis (37). Biofilm dispersal was calculated similar to inhibition in Equation I via UV-Vis.

[7] = tested on: S. sobrinus; conditions: 500 μM, 6 h on 6 h-grown biofilm
Description: as §1

Compound: N.N.O=S(=O)(O)O [(NH4)2SO4, ammonium sulfate, reference compound]
- activity in limiting planktonic growth [1]: not active

Compound: O=[N+]([O-])[O-].[Ag+] [AgNO3, Silver Nitrate, reference compound]
- effect on S. mutans biofilm formation (in words) [2]: slight increase in biofilm growth
- effect on biofilm growth of S. sobrinus (in words) [3]: incapable of limiting biofilm growth

Compound: N.N.O=[N+]([O-])O.O=[N+]([O-])O.O=[N+]([O-])[O-].O=[N+]([O-])[O-].O=[N+]([O-])[O-].O=[N+]([O-])[O-].[Ce+4] [CAN, ceric ammonium nitrate]
- IC50 ([2]; read-out: 50% inhibitory concentration (IC50) of biofilm formation): 137 µM

Compound: O=[N+]([O-])[O-].O=[N+]([O-])[O-].O=[N+]([O-])[O-].O=[N+]([O-])[O-].O=[N+]([O-])[O-].O=[N+]([O-])[O-].[Ce+4].[NH4+].[NH4+] [CAN, ceric ammonium nitrate]
- toxicity on gingival keratinocytes as compared to AgNO3 [4]: reduced toxicity
- inhibition of S. mutans biofilm growth ([2]; 125 µM): 51% and ~40%
- visible in vitro planktonic growth of bacteria [5]: ++
- effect on planktonic growth of S. mutans [1]: did not inhibit; also recorded: slight growth lag; also recorded: slight lagging effect; also recorded: Non-inhibitory effect
- inhibition of biofilm formation of S. sobrinus 6715 [3]: 44%

Compound: O=[N+]([O-])[O-].O=[N+]([O-])[O-].O=[N+]([O-])[O-].[Ce+3] [Ce(NO3)3, Cerium (III) nitrate, reference compound]
- effect on S. mutans biofilm formation (in words) [2]: slight increase in biofilm growth; also recorded: inactive
- effect on biofilm growth of S. sobrinus (in words) [3]: incapable of limiting biofilm growth

Compound: O=S(=O)([O-])[O-].[Zn+2] [ZnSO4, reference compound]
- effect on S. mutans biofilm formation (in words) ([2]; 125 μM (metal ion/Ce), BHI 1% sucrose, 37° C., 5% CO2, 20 h): slight increase in biofilm growth
- effect on biofilm growth of S. sobrinus (in words) [3]: incapable of limiting biofilm growth

Compound: ceric ammonium sulfate [CAS]
- toxicity on gingival keratinocytes as compared to AgNO3 [4]: reduced toxicity
- inhibition of S. mutans biofilm growth ([2]; 125 μM): 40%
- visible in vitro planktonic growth of bacteria [5]: ++
- effect on planktonic growth of S. mutans [1]: did not inhibit; also recorded: non-significant growth effect; also recorded: Non-inhibitory effect
- biofilm dispersal, S. mutans [6]: 6%
- biofilm dispersal, S. sobrinus [7]: 8%
- inhibition of biofilm formation of S. sobrinus 6715 [3]: 35%

Source: patent publication US10835556B2, “Hydrolyzed tetravalent metal salts and methods of biofilm inhibition” (THE BOARD OF TRUSTEES OF THE UNIVERSITY OF ILLINOIS, priority 2018, dated 2020)
